# Results reported in patent US10647959B2, “Cell-friendly inverse opal hydrogels for cell encapsulation, drug and protein delivery, and functional nanoparticle encapsulation” (President and Fellows of Harvard College, priority 2011, dated 2020).
# Test system: Mouse mesenchymal stem cells (MSCs)
# Details: 50 mM EDTA solution, up to 3 h incubation, fluorescent images (FIG. 5a)
# Method: Subsequently, the viability of cells was measured with a live/dead cell assay by using calcein AM and ethidium homodimer-1.
structure (smiles),measurement,value
"O=C(O)CN(CCN(CC(=O)O)CC(=O)O)CC(=O)O [EDTA, ethylenediaminetetraacetic acid]",toxicity of the EDTA solution to the cells,no significant toxicity
